These are literature values, as cited in patent publication US9920373B2, “Biomarkers of response to proteasome inhibitors” (MILLENNIUM PHARMACEUTICALS, INC., priority 2011, dated 2018).

The conditions of the data set: upon exposure to aqueous solutions or plasma; cited from earlier work.

As to `CC(C)C[C@H](NC(=O)CNC(=O)c1cc(Cl)ccc1Cl)B1OC(=O)C(CC(=O)O)(CC(=O)O)O1` [MLN9708, 2,2′-{2-[(1R)-1-({[(2,5dichlorobenzoyl)amino]acetyl}amino)-3-methylbutyl]-5-oxo-1,3,2-dioxaborolane-4,4-diyl}diacetic acid], the “hydrolysis to the biologically active form” value was “immediately hydrolyzes to MLN2238”.
